Consider 1 molecule from patent publication US7485642B2, “Method for treating septic shock” (Orion Corporation, priority 2000, dated 2009).

For this experiment, the system named is porcine model of endotoxin shock. As to the kind of experiment: porcine model of endotoxin shock. It counts as in vivo, landrace pigs. How it is done:
20 kg landrace pigs were anesthetized and catheterized. After baseline measurements 8 pigs received 200 μg/kg levosimendan as a 10 minute bolus followed by an infusion of 200 μg/kg/hour. 9 animals served as controls.
In the second phase of the experiment the animals were given an infusion of endotoxin (from E. Coli bacteria) 30 minutes after the start of the bolus dose of levosimendan. The endotoxin infusion was maintained for 3 hours and the levosimendan infusion was maintained throughout the experiment until 5 hours after onset of endoxemia. Comparison between the two groups was made with ANOVA.
The changes in the cardiac index, splanchnic (portal) blood flow index, portal venous blood lactate and pulmonary vascular resistance are shown in FIGS. 1-4. In the Figures, (−0.5 h) means the start of levosimendan bolus and (0 h) the start of endotoxin infusion.

The mark [1] stands for this setting: porcine model of endotoxin shock, 200 μg/kg 10 minute bolus followed by infusion of 200 μg/kg/hour, E. Coli endotoxin infusion 3 hours.

With `CC1CC(=O)NN=C1c1ccc(NN=C(C#N)C#N)cc1` (single isomer, unassigned; (-)) [levosimendan, (−)-[[4-(1,4,5,6-tetrahydro-4-methyl-6-oxo-3-pyridazinyl)phenyl]hydrazono]propanedinitrile], the survival entry (8 levosimendan treated pigs, until 5 hours after onset of endotoxemia) is listed as “All levosimendan treated animals survived”. For the same molecule, under setting [1], the “endotoxin-induced decreases in cardiac output” value was “counteracts” and the endotoxin-induced splanchnic hyperperfusion result is on record as “counteracts endotoxin-induced splanchnic hyperperfusion”. Moreover, the “endotoxin-induced circulatory disorders (cardiac index, portal blood flow index, portal venous blood lactate, pulmonary vascular resistance; FIGS. 1-4)” value (vs control, ANOVA, until 5 hours after onset of endotoxemia) is reported as “can significantly counteract endotoxin-induced circulatory disorders”.
